The subject of experiment [1] is balloon injured left carotid artery (neointima formation). The experiment can be described thus: Morphometric and histologic analysis of balloon-injured left carotid artery 2 weeks post-injury. The format is in vivo, rat. How it is done: The established rat carotid artery (CA) provided the model of balloon angioplasty to illustrate the in vivo arterial response to injury. Male Sprague Dawley rats (Harlan, Indianapolis, Ind.) weighing an average 497 g were anesthetized with a combination anesthetic (ketamine, zylazine, and acepromazine; 0.5-0.7 ml/kg, IM; VetMed Drugs, Houston, Tex.), and the left CA and external carotid branch exposed.
A Fogarty 2F embolectomy catheter (Baxter Healthcare Corp., Irvine, Calif.) was introduced into the external carotid branch through an arteriotomy incision and advanced to the aortic arch. The balloon was inflated and withdrawn three times with rotation. The catheter was removed and the external carotid ligated. The overlying tissue was sutured and the skin closed with rodent wound clips.
In one embodiment, the entire length of the left CA was balloon injured, immediately followed by perivascular application of YC-1 (1 mg) on the distal section. Sites where tissues were taken for “distal+YC-1” and “proximal−YC-1” are indicated. The right CA served as an uninjured control. EC=external carotid branch; IC=internal carotid branch.
Immediately following balloon injury, at least about 200 μl of a 25% solution of a copolymer gel (Pluronic F-127; BASF Corporation, Mount Olive, N.J.) plus YC-1 (at least about 1 mg in 50 μl DMSO; Calbiochem, La Jolla, Calif.) was administered topically to the exposed adventitia of the distal CA section. […] In all experiments, the entire length of the left CA was injured (avg. 22 mm), while the contralateral right CA served as an unmanipulated untreated control. Only the distal half of the injured left CA was exposed during the surgery, and this section (approximately 11 mm) was treated with YC-1 (or empty gel) while the proximal half remained untreated. A cohort of animals that was balloon-injured and not exposed to any gel or other treatment served as a separate control group.
Acute studies illustrating enzyme and cGMP induction used freshly obtained tissues that were removed from the sacrificed animal and immediately snap-frozen. In one embodiment, two week studies were performed and morphologic remodeling of the vessel wall was monitored in tissue from animals that were perfusion-fixed transcardially using warmed PBS followed by 10% buffered formalin phosphate. Tissues were fixed, processed by standard procedures, and paraffin-embedded, procedures that are well-known to those of ordinary skill in the art of histology. Five micron sections were cut using a rotary microtome and placed on pre-treated slides. For Verhoff's elastic tissue staining, slides were deparaffinized and stained with Verhoff's solution of alcoholic hematoxylin, ferric chloride, and potassium iodine. Slides differentiated with ferric chloride and counterstained with Van Gieson's solution containing 1% acid fuchsin and picric acid.
Microscopic quantitation of vessel dimensions was performed using Zeiss Image 3.0 (Media Cybernetics) and Adobe Photoshop 4.0™ (Adobe Systems) software systems linked through a CCD color camera (Leaf Microlumina, Leaf Systems, USA) to a Zeiss Axioskop 50 light microscope (Carl Zeiss, Germany). Images were measured for perimeters and areas corresponding to internal and external elastic laminae and lumen. Numerical transformations provided data for neointimal and medial wall areas and vessel diameters.
FIG. 6 depicts representative morphometric analyses for (a) neointimal cross-sectional area, (b) neointimal area/medial wall area ratio, (c) neointimal thickness and (d) medial wall area [(a), (b) and (c) statistically significant with p<0.001; (d) statistically significant with p<0.05]. Data for balloon injured left CA distal sections exposed to YC-1 (“distal+YC-1”) and for balloon injured left CA proximal sections not exposed to YC-1 (“proximal−YC-1”) are shown. Values represent mean±SE. For all parameters n=6 animals in the control group and n=9 animals in the YC-1 treated group.

The subject of experiment [2] is vessel wall cGMP (sGC/cGMP system) in left carotid artery. The experiment can be described thus: Cyclic GMP levels by RIA in balloon injured left carotid artery sections after perivascular YC-1. The format is in vivo, rat.
Protocol: Cyclic GMP levels were measured in vessel samples with a competitive RIA using ^125I-labeled cGMP, following instructions from the manufacturer (Amersham Pharmacia Biotech, Piscataway, N.J.). […]
The target of experiment [3] is T1, soluble guanylyl cyclase (sGC) (Homo sapiens, UniProt Q02108+Q02153).
T1 sequence (Q02153 1-619): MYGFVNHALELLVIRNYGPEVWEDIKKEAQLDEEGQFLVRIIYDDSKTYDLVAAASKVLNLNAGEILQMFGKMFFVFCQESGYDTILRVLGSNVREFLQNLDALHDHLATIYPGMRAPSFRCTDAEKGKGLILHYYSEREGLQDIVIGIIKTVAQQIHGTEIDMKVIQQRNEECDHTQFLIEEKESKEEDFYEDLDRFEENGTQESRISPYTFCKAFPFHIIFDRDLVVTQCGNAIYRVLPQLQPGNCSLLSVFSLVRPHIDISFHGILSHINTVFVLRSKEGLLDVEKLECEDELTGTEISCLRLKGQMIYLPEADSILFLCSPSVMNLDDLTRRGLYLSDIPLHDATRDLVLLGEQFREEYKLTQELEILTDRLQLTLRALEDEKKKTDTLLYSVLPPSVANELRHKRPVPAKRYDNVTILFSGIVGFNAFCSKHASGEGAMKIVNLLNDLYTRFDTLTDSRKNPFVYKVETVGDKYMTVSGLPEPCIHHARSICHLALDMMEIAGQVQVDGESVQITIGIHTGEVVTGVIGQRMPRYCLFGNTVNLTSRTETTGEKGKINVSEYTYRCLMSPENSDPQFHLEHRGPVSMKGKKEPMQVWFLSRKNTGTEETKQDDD
T1 sequence (Q02108 1-690): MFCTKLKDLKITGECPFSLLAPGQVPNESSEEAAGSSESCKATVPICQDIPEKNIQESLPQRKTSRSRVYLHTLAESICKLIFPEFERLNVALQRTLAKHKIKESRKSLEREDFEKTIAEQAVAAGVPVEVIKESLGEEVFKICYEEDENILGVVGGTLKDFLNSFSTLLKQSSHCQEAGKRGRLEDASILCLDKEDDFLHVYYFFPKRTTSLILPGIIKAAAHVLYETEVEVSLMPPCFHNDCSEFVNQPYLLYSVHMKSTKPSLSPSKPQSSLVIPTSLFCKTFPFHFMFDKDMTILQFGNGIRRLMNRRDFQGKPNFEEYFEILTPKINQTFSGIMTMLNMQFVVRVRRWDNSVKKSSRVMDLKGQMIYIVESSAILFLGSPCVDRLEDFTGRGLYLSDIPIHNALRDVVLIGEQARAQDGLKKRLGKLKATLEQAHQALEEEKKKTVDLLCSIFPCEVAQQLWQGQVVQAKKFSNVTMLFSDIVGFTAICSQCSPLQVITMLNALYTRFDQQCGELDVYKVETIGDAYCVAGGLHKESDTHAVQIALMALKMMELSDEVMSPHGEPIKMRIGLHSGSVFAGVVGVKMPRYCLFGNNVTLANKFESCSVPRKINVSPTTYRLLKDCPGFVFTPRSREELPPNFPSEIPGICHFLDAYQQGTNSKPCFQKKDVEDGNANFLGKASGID
The settings on record: cited from earlier work.

The next experiment has as its system vascular HO-1. The settings on record: pharmacologic administration of hemin; cited from earlier work.

As for `OCc1ccc(-c2nn(Cc3ccccc3)c3ccccc23)o1` [YC-1, 3-(5′-hydroxymethyl-2′-furyl)-1-benzyl indazole], the “histology of elastin-stained cross-section: adventitia and collagen staining” value in experiment [1] (FIG. 5 panel (B), distal section treated with 1 mg YC-1, 2 weeks post-injury) is “decreased adventitia and reduced collagen staining”. In experiment [1] (between and among all treatment groups, 2 weeks post-injury), the “lengths of internal elastic laminae and external elastic laminae” value is “No differences were detected”. For the same compound, the “neointimal cross-sectional area, attenuation” value in experiment [1] (distal YC-1 (1 mg) sections vs proximal unexposed sections of same vessel, 2 weeks post-injury, p<0.001, n=9) was −74%. For the same compound, the “neointimal thickness, attenuation” value in experiment [1] (distal YC-1 (1 mg) sections vs proximal unexposed sections, 2 weeks post-injury, p<0.001, n=9) is on record as -76%. For the same compound, the “medial wall cross-sectional area, diminution” value in experiment [1] (distal YC-1 (1 mg) sections vs proximal unexposed sections, 2 weeks post-injury, p<0.05, n=9) is −12%. For the same compound, the “neointimal area/medial wall area ratio, attenuation” value in experiment [1] (distal YC-1 (1 mg) sections vs proximal unexposed sections, 2 weeks post-injury, p=0.001, n=9) was −72%. In addition, the “YC-1 induced alterations in cGMP” value in experiment [2] (CA sections from a separate group of uninjured rats (data not shown)) is “do not show YC-1 induced alterations in cGMP”. In experiment [2] (injured CA distal sections exposed to YC-1 (1 mg in gel), 24 hours post-injury, mean±SE, n=5, proximal unexposed sections 0.64±0.11, p=0.012), this compound yielded a cGMP content of 1.23±0.13. The “stimulation of CO-induced sGC (specific activity)” value in experiment [3] is recorded as “approximately 400 fold”.

For the compound hemin, the “vascular HO-1 expression” value with vascular HO-1 is listed as “upregulated vascular HO-1”.

As for `[C-]#[O+]` [CO, carbon monoxide], the “activation of the purified enzyme (sGC)” value in experiment [3] is given as 4- to 6 fold.

For the compound `[N]=O` [NO, nitric oxide], in experiment [3], the “activation of the purified enzyme (sGC)” value is 400 fold.
